What was measured:
IL-2 = IL-2 production by T cells (anti-CD3 stimulated, ELISA); type: cell-based; details: T-cell, one collective range stated for the tested compounds, read-out: EC50 values for stimulating the production of IL-2
Procedure: 5.48.2 […] and MIP-3α Production by T Cells
PBMC are depleted of adherent monocytes by placing 1×10^8 PBMC in 10 ml complete medium (RPMI 1640 supplemented with 10% heat-inactivated fetal bovine serum, 2 mM L-glutamine, 100 U/ml penicillin, and 100 μg/ml streptomycin) per 10 cm tissue culture dish, in 37° C., 5% CO2 incubator for 30-60 minutes. The dish is rinsed with medium to remove all non-adherent PBMC. T cells are purified by negative selection using the following antibody (Pharmingen) and Dynabead (Dynal) mixture for every 1×10^8 non-adherent PBMC: 0.3 ml Sheep anti-mouse IgG beads, 15 μl anti-CD16, 15 μl anti-CD33, 15 μl anti-CD56, 0.23 ml anti-CD19 beads, 0.23 ml anti-HLA class II beads, and 56 μl anti-CD14 beads. The cells and bead/antibody mixture is rotated end-over-end for 30-60 minutes at 4° C. Purified T cells are removed from beads using a Dynal magnet. Typical yield is about 50% T cells, 87-95% CD3^+ by flow cytometry.
Tissue culture 96-well flat-bottom plates are coated with anti-CD3 antibody OKT3 at 5 μg/ml in PBS, 100 μl per well, incubated at 37° C. for 3-6 hours, then washed four times with complete medium 100 μl/well just before T cells are added. Compounds are diluted to 20 times of final in a round bottom tissue culture 96-well plate. Final concentrations are about 10 μM to about 0.00064 μM. A 10 mM stock of compounds provided herein is diluted 1:50 in complete for the first 20× dilution of 200 μM in 2% DMSO and serially diluted 1:5 into 2% DMSO. Compound is added at 10 μl per 200 μl culture, to give a final DMSO concentration of 0.1%. Cultures are incubated at 37° C., 5% CO2 for 2-3 days, and supernatants analyzed for IL-2 and MIP-3α by ELISA (R&D Systems). IL-2 and MIP-3 cc levels are normalized to the amount produced in the presence of an amount of a compound provided herein, and EC50s calculated using non-linear regression, sigmoidal dose-response, constraining the top to 100% and bottom to 0%, allowing variable slope (GraphPad Prism v3.02).
Abilities of certain compounds for stimulating the production of IL-2 were determined using procedures substantially similar to those described in Section 5.48.2, above.

Namalwa AG4 cells = experiment: Cell proliferation assay (3H-thymidine incorporation); type: cell-based; details: one collective range stated for the tested compounds, read-out: IC50 values for inhibiting proliferation of Namalwa AG4 cells
Procedure: 5.48.3 Cell Proliferation Assay
Cell lines Namalwa, MUTZ-5, and UT-7 are obtained from the Deutsche Sammlung von Mikroorganismen und Zellkulturen GmbH (Braunschweig, Germany). The cell line KG-1 is obtained from the American Type Culture Collection (Manassas, Va., USA). Cell proliferation as indicated by ^3H-thymidine incorporation is measured in all cell lines as follows.
Cells are plated in 96-well plates at 6000 cells per well in media. The cells are pre-treated with compounds at about 100, 10, 1, 0.1, 0.01, 0.001, 0.0001 and 0 μM in a final concentration of about 0.25% DMSO in triplicate at 37° C. in a humidified incubator at 5% CO2 for 72 hours. One microcurie of 3H-thymidine (Amersham) is then added to each well, and cells are incubated again at 37° C. in a humidified incubator at 5% CO2 for 6 hours. The cells are harvested onto UniFilter GF/C filter plates (Perkin Elmer) using a cell harvester (Tomtec), and the plates are allowed to dry overnight. Microscint 20 (Packard) (25 μl/well) is added, and plates are analyzed in TopCount NXT (Packard). Each well is counted for one minute. Percent inhibition of cell proliferation is calculated by averaging all triplicates and normalizing to the DMSO control (0% inhibition). Each compound is tested in each cell line in three separate experiments. Final IC50s are calculated using non-linear regression, sigmoidal dose-response, constraining the top to 100% and bottom to 0%, allowing variable slope. (GraphPad Prism v3.02).
Abilities of certain compounds for inhibiting proliferation of Namalwa AG4 cells were determined using procedures substantially similar to those described in Section 5.48.3, above.

| SMILES | EC50 (IL-2) | melting point | IC50 (Namalwa AG4 cells) |
| --- | --- | --- | --- |
| Cc1nc2ccc(CNC(=O)Nc3ccc(OC(F)(F)F)cc3)cc2c(=O)n1C1CCC(=O)NC1=O (centres unmarked) [1-[3-(2,6-dioxo-piperidin-3-yl)-2-methyl-4-oxo-3,4-dihydro-quinazolin-6-ylmethyl]-3-(4-trifluoromethoxy-phenyl)-urea] | 0.1 to 3.5 µM | 201 to 203 °C | 0.01 to 5.5 µM |
| CCCCCCNC(=O)NCc1ccc2nc(C)n(C3CCC(=O)NC3=O)c(=O)c2c1 (centres unmarked) [1-[3-(2,6-dioxo-piperidin-3-yl)-2-methyl-4-oxo-3,4-dihydro-quinazolin-6-ylmethyl]-3-hexyl-urea] | 0.1 to 3.5 µM | 220 to 222 °C | 0.01 to 5.5 µM |
| Cc1nc2ccc(N)cc2c(=O)n1C1CCC(=O)NC1=O (centres unmarked) [3-(6-amino-2-methyl-4-oxo-4H-quinazolin-3-yl)-piperidine-2,6-dione] | 0.1 to 3.5 µM | – | 0.01 to 5.5 µM |

Second part, led by results:

| EC50 (IL-2) | melting point | SMILES | IC50 (Namalwa AG4 cells) |
| --- | --- | --- | --- |
| 0.1 to 3.5 µM | 315 to 317 °C | Cc1nc2ccc(O)cc2c(=O)n1C1CCC(=O)NC1=O (centres unmarked) [3-(6-hydroxy-2-methyl-4-oxo-4H-quinazolin-3-yl)-piperidine-2,6-dione] | – |
| 0.1 to 3.5 µM | – | Cc1nc2cc(N)ccc2c(=O)n1C1CCC(=O)NC1=O (centres unmarked) [3-(7-amino-2-methyl-4-oxo-4H-quinazolin-3-yl)-piperidine-2,6-dione] | 0.01 to 5.5 µM |
| 0.1 to 3.5 µM | – | Cc1nc2cc(Br)ccc2c(=O)n1C1CCC(=O)NC1=O (centres unmarked) [3-(7-bromo-2-methyl-4-oxo-4H-quinazolin-3-yl)-piperidine-2,6-dione] | 0.01 to 5.5 µM |
| 0.1 to 3.5 µM | 291 to 293 °C | Cc1nc2cc(Cl)ccc2c(=O)n1C1CCC(=O)NC1=O (centres unmarked) [3-(7-chloro-2-methyl-4-oxo-4H-quinazolin-3-yl)-piperidine-2,6-dione] | 0.01 to 5.5 µM |
| 0.1 to 3.5 µM | 243 to 245 °C | Cc1nc2cc(F)ccc2c(=O)n1C1CCC(=O)NC1=O (centres unmarked) [3-(7-fluoro-2-methyl-4-oxo-4H-quinazolin-3-yl)-piperidine-2,6-dione] | 0.01 to 5.5 µM |

From patent publication US8492395B2, “7-substituted quinazolinone compounds and compositions comprising the same” (Celgene Corporation, priority 2007, dated 2013)
